“And” between values parts separate entries of the source, which are not always exact repeats. Identical values can stand only once. Like-named read-outs stand apart in the source and are kept apart here.
Key:
[1] = target: MarR; set-up: method as in Conway et al. 2022; conditions: MarR domains, high affinity IAA binding; ref Conway et al. 2022; cited from earlier work
[2] = target: IadK2 (Variovorax paradoxus, UniProt T1X8R6); test: ITC, auxins binding to IadK2
Protocol: (§1) ITC experiments were performed using a MicroCal PEAQ-ITC system (Malvern). All the experiments were performed at […] in a buffer containing 25 mM Tris-HCl (pH 7.5) and 150 mM NaCl (unless otherwise stated). […] Data was analyzed using the MicroCal PEAQ-ITC analysis software. All the measurements were repeated at least 2 times.

[3] = test system: Iad proteins; test: Thermal shift assay (TSA), other Iad proteins with IAA; type: binding, Variovorax paradoxus CL14; conditions: for ΔTm: replicates
Protocol: (§2) Ligands concentrations were tested at 2- to […] excess (10 to 1,000 μM) relative to the proteins (5 μM). The fluorescence dye SYPRO Orange at a final of 200-fold dilution was used to monitor the unfolding of proteins. The protein and ligand were incubated for 10 min at room temperature before the addition of SYPRO Orange dye. The QuantStudio 1 Plus real-time PCR system (Thermo Fisher) was used to control the temperature increasing from […] to […] with an increment of […] and to monitor the fluorescence (excitation: 520 ± 10 nm and emission: 558 ± 10 nm). Each tested group was run in triplicate and repeated. Data was imported to the Protein Thermal Shift software for analysis and plotting.

[4] = test system: IadK2 mutants; test: Thermal shift assay (TSA), IadK2 mutants and IAA; type: binding, Variovorax paradoxus CL14; set-up: unit not given here; conditions: replicates
Protocol: as §2

[5] = target: IadI (Variovorax paradoxus, UniProt A0A0H2M433); test: ITC, IAA binding to IadI; set-up: species or system Variovorax paradoxus CL14
Protocol: as §1

IadI, sequence (A0A0H2M433 entry or part of it): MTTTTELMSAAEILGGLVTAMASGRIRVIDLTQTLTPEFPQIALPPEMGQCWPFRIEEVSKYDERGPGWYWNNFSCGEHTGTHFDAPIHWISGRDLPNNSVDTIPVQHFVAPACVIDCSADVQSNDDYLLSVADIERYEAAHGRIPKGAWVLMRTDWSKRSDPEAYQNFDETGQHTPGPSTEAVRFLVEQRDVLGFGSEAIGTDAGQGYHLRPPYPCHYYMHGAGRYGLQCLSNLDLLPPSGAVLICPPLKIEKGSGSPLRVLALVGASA
IadK2, sequence (T1X8R6 entry or part of it): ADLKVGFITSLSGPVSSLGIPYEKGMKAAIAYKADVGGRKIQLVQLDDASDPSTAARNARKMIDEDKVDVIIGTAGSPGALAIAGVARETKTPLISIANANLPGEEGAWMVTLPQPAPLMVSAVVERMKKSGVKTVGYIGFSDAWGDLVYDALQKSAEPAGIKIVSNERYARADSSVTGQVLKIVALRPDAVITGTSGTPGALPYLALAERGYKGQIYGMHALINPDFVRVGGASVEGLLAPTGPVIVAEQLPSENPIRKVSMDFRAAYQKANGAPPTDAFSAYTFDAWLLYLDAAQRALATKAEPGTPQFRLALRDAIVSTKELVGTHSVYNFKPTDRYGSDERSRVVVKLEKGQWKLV

SMILES: O=C(O)Cc1c[nH]c2ccccc12 [IAA, indole-3-acetic acid]
- Kd [1]: ~300 nM
- Kd ([2]; ITC, biphasic isotherm, IadK2 + IAA, mean ± SEM, 3 measurements, read-out: KD1): 530 ± 80 nM
- Kd ([2]; ITC, biphasic isotherm, IadK2 + IAA, mean ± SEM, 3 measurements, read-out: KD2): 9 ± 3.05 nM
- Kd ([2]; IadK2, ITC, replicates, read-out: Kd1): 500 nM and 600 nM (2×)
- Kd ([2]; IadK2, ITC, replicates, read-out: Kd2): 8.3 nM and 12 nM and 11.4 nM
- effect on melting temperature (TSA) ([3]; Iad proteins other than IadK2, result in words): no profound effects
- ΔTm ([3]; IadC with IAA): -0.4983 °C and 0.9966 °C and 0 °C
- ΔTm ([3]; IadF with IAA): 0.4983 °C and -0.9966 °C and 0 °C
- ΔTm ([3]; IadG with IAA): 1.495 °C (2×) and 1.993 °C
- ΔTm ([3]; IadH with IAA): 0.9966 °C and 0 °C and -0.4983 °C
- ΔTm ([3]; IadI with IAA): 0.4983 °C and -0.4983 °C and -1.993 °C
- ΔTm ([3]; IadJ with IAA): 0 °C and 0.4983 °C and 1.495 °C
- Tm change with IAA (TSA) ([4]; IadK2 A125G): 2.99 and 2.492 and 3.488
- Tm change with IAA (TSA) ([4]; IadK2 A125T/N126P): 1.993 and 1.495 (2×)
- Tm change with IAA (TSA) ([4]; IadK2 A249G): 3.986 and 4.485 and 5.4814
- Tm change with IAA (TSA) ([4]; IadK2 F168G): 0.4983
- Tm change with IAA (TSA) ([4]; IadK2 F308G): 1.495
- Tm change with IAA (TSA) ([4]; IadK2 H248G): 2.492 (2×) and 3.488
- Tm change with IAA (TSA) ([4]; IadK2 N126A): 3.488 (2×) and 2.99
- Tm change with IAA (TSA) ([4]; IadK2 R199A): 0.4983 and 0 (2×)
- Tm change with IAA (TSA) ([4]; IadK2 S014V/W172L): 0
- Tm change with IAA (TSA) ([4]; IadK2 S104A): 2.99 and 2.492 and 3.488
- Tm change with IAA (TSA) ([4]; IadK2 S104V): 2.492 and 1.495 and 1.993
- Tm change with IAA (TSA) ([4]; IadK2 S224A): 2.99 and 3.986 (2×)
- Tm change with IAA (TSA) ([4]; IadK2 W172A): 0.4983 and 0 (2×)
- Tm change with IAA (TSA) ([4]; IadK2 W172L): 0
- Tm change with IAA (TSA) ([4]; IadK2 Y311A): 0
- IAA binding (ITC) [5]: no binding detected
- Kd ([5]; ITC, replicates): > 100000 nM

Reference: article PMC10374108, “Structural and biochemical characterization of the key components of an auxin degradation operon from the rhizosphere bacterium Variovorax” (PLOS Biology, 2023)
